According to patent US8084649B2, “Herbicides” (Syngenta Crop Protection, inc., priority 2007, dated 2011):
Each block holds one compound with its values, some of them ahead of it.

What was measured:
[1] = system: Alopecurus myosuroides (ALOMY); assay: Pre-emergence herbicidal activity, glasshouse pot test; type: in vivo; settings: Alopecurus myosuroides, 480 h, rate 500 g/ha, evaluated after 20 days, read-out: Pre-emergence activity, ALOMY (100=total damage to plant; 0=no damage to plant)
In short: (§1)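 Pots were sown in sterilised standard soil and, one day after sowing, sprayed pre-emergence with an aqueous solution of the formulated compound. Plants were grown on in a greenhouse and damage was scored after 20 days on a 0–100 scale, where 100 means total damage.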

[2] = system: Avena fatua (AVEFA); assay: as above; type: in vivo; settings: Avena fatua, 480 h, rate 500 g/ha, evaluated after 20 days, read-out: Pre-emergence activity, AVEFA (100=total damage to plant; 0=no damage to plant)
In short: as §1

[3] = system: Digitaria sanguinalis (DIGSA); assay: as above; type: in vivo; settings: Digitaria sanguinalis, 480 h, rate 500 g/ha, evaluated after 20 days, read-out: Pre-emergence activity, DIGSA (100=total damage to plant; 0=no damage to plant)
In short: as §1

[4] = system: Echinochloa crus-galli (ECHCG); assay: as above; type: in vivo; settings: Echinochloa crus-galli, 480 h, rate 500 g/ha, evaluated after 20 days, read-out: Pre-emergence activity, ECHCG (100=total damage to plant; 0=no damage to plant)
In short: as §1

[5] = system: Lolium perenne (LOLPE); assay: as above; type: in vivo; settings: Lolium perenne, 480 h, rate 500 g/ha, evaluated after 20 days, read-out: Pre-emergence activity, LOLPE (100=total damage to plant; 0=no damage to plant)
In short: as §1

[6] = system: Setaria faberi (SETFA); assay: as above; type: in vivo; settings: Setaria faberi, 480 h, rate 500 g/ha, evaluated after 20 days, read-out: Pre-emergence activity, SETFA (100=total damage to plant; 0=no damage to plant)
In short: as §1

[7] = system: Alopecurus myosuroides (ALOMY); assay: Post-emergence herbicidal activity, glasshouse pot test; type: in vivo; settings: Alopecurus myosuroides, evaluated after 14 or 15 days, read-out: Post-emergence activity, ALOMY (100=total damage to plant; 0=no damage to plant); for pest or weed control at 500 g/ha: rate 500 g/ha; for pest or weed control at 125 g/ha: rate 125 g/ha
In short: (§2)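 Plants sown in sterilised standard soil, grown 10 days in glasshouse, then sprayed with aqueous dilution of active ingredient formulated in acetone plus Emulsogen EL/N-methylpyrrolidone/dipropylene glycol monomethyl ether/X-77 solution. Damage scored visually 14 or 15 days after spraying, 0 (none) to 100 (total).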

[8] = system: Avena fatua (AVEFA); assay: as above; type: in vivo; settings: Avena fatua, evaluated after 14 or 15 days, read-out: Post-emergence activity, AVEFA (100=total damage to plant; 0=no damage to plant); for pest or weed control at 500 g/ha: rate 500 g/ha; for pest or weed control at 125 g/ha: rate 125 g/ha
In short: as §2

[9] = system: Digitaria sanguinalis (DIGSA); assay: as above; type: in vivo; settings: Digitaria sanguinalis, evaluated after 14 or 15 days, read-out: Post-emergence activity, DIGSA (100=total damage to plant; 0=no damage to plant); for pest or weed control at 500 g/ha: rate 500 g/ha; for pest or weed control at 125 g/ha: rate 125 g/ha
In short: as §2

[10] = system: Echinochloa crus-galli (ECHCG); assay: as above; type: in vivo; settings: Echinochloa crus-galli, evaluated after 14 or 15 days, read-out: Post-emergence activity, ECHCG (100=total damage to plant; 0=no damage to plant); for pest or weed control at 500 g/ha: rate 500 g/ha; for pest or weed control at 125 g/ha: rate 125 g/ha
In short: as §2

[11] = system: Lolium perenne (LOLPE); assay: as above; type: in vivo; settings: Lolium perenne, evaluated after 14 or 15 days, read-out: Post-emergence activity, LOLPE (100=total damage to plant; 0=no damage to plant); for pest or weed control at 500 g/ha: rate 500 g/ha; for pest or weed control at 125 g/ha: rate 125 g/ha
In short: as §2

[12] = system: Setaria faberi (SETFA); assay: as above; type: in vivo; settings: Setaria faberi, evaluated after 14 or 15 days, read-out: Post-emergence activity, SETFA (100=total damage to plant; 0=no damage to plant); for pest or weed control at 500 g/ha: rate 500 g/ha; for pest or weed control at 125 g/ha: rate 125 g/ha
In short: as §2

melting point: 108 to 114 °C
Compound: Cc1ccc(C)c(C2=C(OC(=O)N(C)CCC#N)CC3(CCOCC3)CC2=O)c1 [Compound P57]

melting point: 94.5 to 97.5 °C
Compound: CCc1ccc(-c2ccc(Cl)cc2)cc1C1=C(O)CC2(CCOCC2)CC1=O [Compound T4, 9-(5-(4′-chlorophenyl)-2-ethylphenyl)-3-oxaspiro[5.5]undecane-8,10-dione]
pest or weed control at 500 g/ha [1]: 70%
pest or weed control at 500 g/ha [2]: 70%
pest or weed control at 500 g/ha [3]: 100%
pest or weed control at 500 g/ha [4]: 100%
pest or weed control at 500 g/ha [5]: 70%
pest or weed control at 500 g/ha [6]: 100%
pest or weed control at 500 g/ha [7]: 90%
pest or weed control at 500 g/ha [8]: 80%
pest or weed control at 500 g/ha [9]: 100%
pest or weed control at 500 g/ha [10]: 100%
pest or weed control at 500 g/ha [11]: 70%
pest or weed control at 500 g/ha [12]: 90%

melting point: 58 to 61 °C
Compound: CCc1cc(C)cc(CC)c1C1=C(O)CC(CC(C)[S+]([O-])CC)CC1=O (stereo not drawn) [Compound T29, 2-(2,6-diethyl-4-methylphenyl)-5-[2-(ethylsulfinyl)propyl]cyclohexane-1,3-dione]
pest or weed control at 500 g/ha [1]: 100%
pest or weed control at 500 g/ha [2]: 90%
pest or weed control at 500 g/ha [3]: 100%
pest or weed control at 500 g/ha [4]: 100%
pest or weed control at 500 g/ha [5]: 100%
pest or weed control at 500 g/ha [6]: 100%
pest or weed control at 500 g/ha [7]: 90%
pest or weed control at 500 g/ha [8]: 100%
pest or weed control at 500 g/ha [9]: 100%
pest or weed control at 500 g/ha [10]: 100%
pest or weed control at 500 g/ha [11]: 90%
pest or weed control at 500 g/ha [12]: 90%

Compound: CCc1cc(C)cc(CC)c1C1=C(O)CC(CC(C)[S+]([O-])C(C)C)CC1=O (stereo not drawn) [Compound T55]
pest or weed control at 500 g/ha [1]: 100%
pest or weed control at 500 g/ha [2]: 90%
pest or weed control at 500 g/ha [3]: 100%
pest or weed control at 500 g/ha [4]: 100%
pest or weed control at 500 g/ha [5]: 100%
pest or weed control at 500 g/ha [6]: 90%
pest or weed control at 125 g/ha [7]: 90%
pest or weed control at 125 g/ha [8]: 80%
pest or weed control at 125 g/ha [9]: 80%
pest or weed control at 125 g/ha [10]: 90%
pest or weed control at 125 g/ha [11]: 80%
pest or weed control at 125 g/ha [12]: 60%

Compound: CCc1ccc(-c2ccc(Cl)cc2)cc1C1=C(O)CC(CCSC)CC1=O (stereo not drawn) [Compound T65]
pest or weed control at 500 g/ha [1]: 90%
pest or weed control at 500 g/ha [2]: 60%
pest or weed control at 500 g/ha [3]: 100%
pest or weed control at 500 g/ha [4]: 100%
pest or weed control at 500 g/ha [5]: 70%
pest or weed control at 500 g/ha [6]: 100%
pest or weed control at 125 g/ha [7]: 90%
pest or weed control at 125 g/ha [8]: 90%
pest or weed control at 125 g/ha [9]: 90%
pest or weed control at 125 g/ha [10]: 100%
pest or weed control at 125 g/ha [11]: 70%
pest or weed control at 125 g/ha [12]: 90%

Compound: CCc1cc(C)cc(CC)c1C1=C(O)CC2(CCC(OC)CC2)CC1=O (stereo not drawn) [Compound T68]
pest or weed control at 500 g/ha [1]: 90%
pest or weed control at 500 g/ha [2]: 70%
pest or weed control at 500 g/ha [3]: 100%
pest or weed control at 500 g/ha [4]: 70%
pest or weed control at 500 g/ha [5]: 100%
pest or weed control at 500 g/ha [6]: 30%
pest or weed control at 125 g/ha [7]: 80%
pest or weed control at 125 g/ha [8]: 40%
pest or weed control at 125 g/ha [9]: 30%
pest or weed control at 125 g/ha [10]: 20%
pest or weed control at 125 g/ha [11]: 80%
pest or weed control at 125 g/ha [12]: 20%

Compound: COC1CCC2(CC1)CC(=O)C(c1cc(-c3ccc(Cl)cc3)ccc1C)=C(O)C2 (stereo not drawn) [Compound T69]
pest or weed control at 500 g/ha [1]: 0%
pest or weed control at 500 g/ha [2]: 30%
pest or weed control at 500 g/ha [3]: 100%
pest or weed control at 500 g/ha [4]: 70%
pest or weed control at 500 g/ha [5]: 60%
pest or weed control at 500 g/ha [6]: 70%
pest or weed control at 125 g/ha [7]: 20%
pest or weed control at 125 g/ha [8]: 10%
pest or weed control at 125 g/ha [9]: 0%
pest or weed control at 125 g/ha [10]: 0%
pest or weed control at 125 g/ha [11]: 50%
pest or weed control at 125 g/ha [12]: 0%
